Measurements taken from patent US8785499B2 (priority 2009, dated 2014).
Read-outs that look alike come from different tables or passages of the source.

What was measured:
[1] = molecular target: baNadD (Bacillus anthracis, UniProt C3L5T6); test: biochemical; assay type: biochemical; conditions: for inhibition at 50 µM: read-out: INHIBITION (%) B. anthracis
[2] = molecular target: ecNadD (Escherichia coli (strain K12), UniProt P0A752); test: biochemical; assay type: biochemical; conditions: for IC50: IC50 ecNadD; for inhibition at 100 µM: read-out: INHIBITION (%) E. coli

baNadD, sequence (C3L5T6 whole entry, looked up): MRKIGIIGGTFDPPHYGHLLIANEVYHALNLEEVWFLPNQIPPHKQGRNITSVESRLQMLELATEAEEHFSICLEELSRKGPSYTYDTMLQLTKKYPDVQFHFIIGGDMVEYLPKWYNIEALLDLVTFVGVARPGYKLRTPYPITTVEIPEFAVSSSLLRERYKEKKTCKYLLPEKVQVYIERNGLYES

Structure (SMILES) | inhibition at 50 µM [1] | inhibition at 100 µM [2] | also measured
O=C(CCC(=O)Nc1cccc(Br)c1)N/N=C/c1c2ccccc2cc2ccccc12 [01_01] | 81% | 90% | IC50 ([1]; read-out: IC50 baNadD): 4 µM; IC50 [2]: 6 µM
O=C(CCC(=O)Nc1ccccc1Br)N/N=C/c1c2ccccc2cc2ccccc12 [01_04] | 100% | 79% | IC50 ([1]; read-out: IC50 baNadD): 25 µM; IC50 [2]: 15 µM
CC(/C=N/NC(=O)CCC(=O)Nc1ccc(Br)cc1)c1ccc2ccccc2c1 (centres unmarked) [01_05] | 76% | 78% | IC50 [2]: 88 µM
O=C(CCC(=O)Nc1ccc(I)cc1)N/N=C/c1cccc(Br)c1 [01_06] | 54% | 78% | 
Cc1ccc(NC(=O)CCC(=O)N/N=C/c2cccc(Br)c2)cc1 [01_08] | 74% | 75% | 
O=C(CCC(=O)Nc1ccc(Br)cc1)N/N=C/c1ccc(Br)cc1 [01_09] | 68% | 74% | 
O=C(CCC(=O)Nc1cccc(Br)c1)N/N=C/c1cccc(Br)c1 [01_10] | 53% | 72% | 
COc1ccc(/C(C)=N/NC(=O)CNc2cc(Br)c(C)c(Br)c2)c(OC)c1 [01_11] | 86% | 70% | IC50 ([1]; read-out: IC50 baNadD): 30 µM
O=C(CCC(=O)Nc1ccc(Br)cc1)N/N=C/C=C/c1ccccc1 [01_12] | 75% | 68% | IC50 ([1]; IC50 baNadD): 48 µM
O=C(CCC(=O)Nc1ccc(Br)cc1)N/N=C/c1cccc(Br)c1 [01_13] | 29% | 67% | IC50 ([1]; read-out: IC50 baNadD): 170 µM
Cc1ccc(/C=N/NC(=O)CCC(=O)Nc2ccc(C)cc2)cc1 [01_14] | 70% | 60% | 
O=C(CCC(=O)Nc1ccc(Br)cc1)N/N=C/c1ccc(F)cc1 [01_15] | 22% | 47% | IC50 ([1]; read-out: IC50 baNadD): 122 µM
O=C(CCC(=O)Nc1ccc(F)cc1)N/N=C/c1ccc(O)cc1 [01_16] | 29% | 42% | 
O=C(CCC(=O)Nc1cccc(Br)c1)N/N=C/c1ccc(I)cc1 [01_17] | 35% | 41% | 
C/C(=N/NC(=O)CCC(=O)Nc1ccc(Br)cc1)c1ccc(Br)cc1 [01_18] | 49% | 38% | 
O=C(CCC(=O)Nc1ccccc1Cl)NN=Cc1ccc(C=NNC(=O)CCC(=O)Nc2ccccc2Cl)cc1 [1—02—1, N-(2-Chloro-phenyl)-3-(4-{[3-(2-chloro-phenylcarbamoyl)-propionyl]-hydrazonomethyl}-benzylidene-hydrazinocarbonyl)-propionamide] |  |  | baNadD inhibition (qualitative) [1]: effective; improvement in activity compared to precursors 1_13 and 1_15 [1]: more than 10 fold; ecNadD inhibition (qualitative) [2]: effective; IC50 [2]: 13 ± 2 µM
O=C(O)CNN=C(C(=O)CCC(=O)Nc1ccccc1Cl)c1ccc(C=NN(CC(=O)O)C(=O)CCC(=O)Nc2ccccc2Cl)cc1 [1—02—2, {N′-(4-{Carboxymethyl-[3-(2-chloro-phenylcarbamoyl)-propionyl]-hydrazonomethyl}-benzylidene)-N-[3-(2-chloro-phenylcarbamoyl)-propionyl]-hydrazino}-acetic acid] |  |  | inhibitory activity against baNadD [1]: did not inhibit
O=C(O)CN(N=Cc1cccc2ccccc12)C(=O)CCC(=O)Nc1ccccc1Cl [1—02—3, {N-[3-(2-Chloro-phenylcarbamoyl)-propionyl]-N′-naphthalen-1-ylmethylene-hydrazino}-acetic acid] |  |  | IC50 ([1]; IC50 baNadD): > 200 µM
Nc1c(C(=O)Nc2cc(F)ccc2F)sc2nc(-c3cccs3)ccc12 [03_01] |  |  | INHIBITION (%) B. anthracis [1]: 100% 25; IC50 ([1]; IC50 baNadD): 25 µM; INHIBITION (%) E. coli [2]: 100% 25; IC50 [2]: 25 µM
Sc1nnc(-c2ccncc2)n1-c1ccccc1Cl [compound 042] |  |  | […]. coli [2]: 19%
Nc1n[nH]c(N)c1/N=N/c1ccccc1 [compound 271] |  |  | […]. coli [2]: 0%
Nc1n[nH]c(N)c1/N=N/c1ccccc1 [compound 272] |  |  | […]. anthracis [1]: 23%
O=C(CCS(=O)(=O)c1ccc(Br)s1)NCc1cccs1 [compound 285] |  |  | […]. coli [2]: 0%
